Data published in patent publication US9840512B2, “Antidiabetic bicyclic compounds” (Merck Sharp & Dohme Corp., priority 2013, dated 2017).

Columns and labels:
[1] = target: T1, human GPR40 (Homo sapiens, UniProt O14842); assay: Inositol Phosphate Turnover (IP1) Assay 1; conditions: Human IP1 Assay 1, EC50, nM, HEK cells stably expressing human GPR40
Description: The assay is performed in 96-well format. HEK cells stably expressing human GPR40 are plated to be 60-80% confluent within 72 h. After 72 h, the plates are aspirated and the cells washed with inositol-free DMEM (ICN). The wash media is replaced with 150 μL of 3H-inositol labeling media (inositol-free media containing 0.4% human albumin or 0.4% mouse albumin, 1× pen/strep antibiotics, glutamine, 25 mM HEPES to which is added 3H-myo-inositol NEN #NET114A 1 mCi/mL, 25 Ci/mmol diluted 1:150 in loading media with a final specific radioactivity of 1 μCi/150 μL). Alternatively, the human and mouse albumin can be added after the overnight labeling step before the addition of LiCl.
The assay is typically run the next day after 18 h labeling. On the day of the assay, 5 μL of 300 mM LiCl is added to all wells and incubated at 37 degrees for 20 min. 0.75 μL of 200× compounds are added and incubated with the cells for 60 min at 37 degrees. The media is then aspirated off and the assay terminated with the addition of 60 μL 10 mM formic acid. The cells are lysed for 60 min at room temperature. 15-30 μL of lysate is mixed with 70 μL/1 mg YSi SPA beads (Amersham) in clear bottom Isoplates. The plates are shaken for 2 h at room temperature. Beads are allowed to settle and the plates are counted in the Wallac Microbeta.

[2] = target: T1, human GPR40; assay: FLIPR assay (agonist-induced calcium mobilization); conditions: for EC50: Human FLIPR EC50, nM or % activation (EC50 values), GPR40/CHO NFAT BLA cells; for activation at 10 µM: CHONFAT, read-out: Human FLIPR EC50, nM or % activation (% activation values)
Description: Human and mouse GPR40 stable cell-lines were generated in CHO cells stably expressing NFAT BLA (Beta-lactamase). […] The expression plasmids were transfected using lipofectamine (Life Technologies) following manufacturer's instructions. Stable cell-lines were generated following drug selection.
FLIPR (Fluorimetric Imaging Plate Reader, Molecular Devices) assays were performed to measure agonist-induced calcium mobilization of the stable clones. For the FLIPR assay, one day before assay, GPR40/CHO NFAT BLA cells were seeded into black-wall-clear-bottom 384-well plates (Costar) at 1.4×10e4 cells/20 μL medium/well. The cells were incubated with 20 μl/well of the assay buffer (HBSS, 0.1% BSA, 20 mM HEPES, 2.5 mM probenecid, pH 7.4) containing 8 μM fluo-4, AM, 0.08% pluronic acid at room temperature for 100 minutes. Fluorescence output was measured using FLIPR. Compounds were dissolved in DMSO and diluted to desired concentrations with assay buffer.

[3] = target: T1, human GPR40; assay: Inositol Phosphate Turnover (IP1) Assay 2; assay type: cell-based; set-up: expressed in transfected cells
How it was run: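 HEK cells stably expressing human GPR40 (aequorin reporter background) seeded and grown 16 h at 37 °C, then treated with compound in IP-One stimulation buffer for 60 min at 37 °C. IP1 accumulation detected by HTRF/FRET after 60 min with detection reagents in the dark.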

[4] = HEK cells stably expressing human GPR40, Table 2, read-out: Human IP1

T1 sequence (O14842 whole entry): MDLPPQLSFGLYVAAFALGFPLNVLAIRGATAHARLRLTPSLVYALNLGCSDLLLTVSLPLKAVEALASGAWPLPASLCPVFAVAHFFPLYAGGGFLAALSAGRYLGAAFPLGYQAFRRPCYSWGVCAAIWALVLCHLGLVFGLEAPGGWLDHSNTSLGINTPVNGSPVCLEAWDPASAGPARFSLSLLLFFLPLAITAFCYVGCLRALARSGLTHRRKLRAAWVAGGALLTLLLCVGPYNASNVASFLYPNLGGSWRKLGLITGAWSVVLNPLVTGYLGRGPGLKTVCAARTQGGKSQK

SMILES | EC50 [1] | EC50 [2] | further results
CC#C[C@@H](CC(=O)O)c1ccc2c(c1)CCC(c1cccc(-c3cccc4c3c(C(F)(F)F)nn4C)c1)O2 (mixture of isomers) [Example 32] | 149 nM | 57 nM | 
CC#CC(CC(=O)O)c1ccc2c(c1)CCC(c1cccc(Oc3ccc(C#N)cc3)c1)O2 (mixture of isomers) [Example 23] | 116 nM | 40 nM | 
Cc1cccc(C)c1-c1cccc(C2CCc3cc(C(CC(=O)O)c4ccccn4)ccc3O2)c1 (mixture of isomers) [Example 34] |  | 734 nM | 
CC#C[C@@H](CC(=O)O)c1ccc2c(c1)CCC(c1cc(-c3ccc(OC)nc3C)ccc1F)O2 (single isomer, unassigned) [Example 38] | 1690 nM | 83 nM | 
CC#CC(CC(=O)O)c1ccc2c(c1)CCC(c1nc(-c3c(C)cccc3C)ccc1F)O2 (mixture of isomers) [Example 16] | 710 nM | 76 nM | 
CC#C[C@@H](CC(=O)O)c1ccc2c(c1)CCC(c1cc(-c3cc(OC)ccc3F)ccc1F)O2 (mixture of isomers) [Example 30] |  | 128 nM | 
CC#CC(CC(=O)O)c1ccc2c(c1)CCC(c1nc(-c3cccnc3C(F)(F)F)ccc1F)O2 (mixture of isomers) [Example 20] |  | 172 nM | 
CC#C[C@@H](CC(=O)O)c1ccc2c(c1)CCC(c1cccc(-c3c(C)noc3C)c1)O2 (single isomer, unassigned) [Example 39] |  | 113 nM | 
COc1ccccc1C(CC(=O)O)c1ccc2c(c1)CCC(c1cccc(-c3c(C)cccc3C)c1)O2 (stereo not shown) [Example 45] |  |  | activation at 10 µM [2]: 12.5%
O=C(O)CCc1ccc2c(c1)CCC(c1ccccc1)O2 (racemic) [Example 2] |  |  | activation at 10 µM [2]: 79%
CC#CC(CC(=O)O)c1ccc2c(c1)CCC(c1cccc(-c3cccnc3C)c1)O2 (mixture of isomers) [Example 26] |  | 244 nM | 
CC#C[C@@H](CC(=O)O)c1ccc2c(c1)CCC(c1cc(-c3ccc(C(F)(F)F)cc3)ccc1F)O2 (mixture of isomers) [Example 29] |  | 162 nM | 
Cc1cccc(C)c1-c1ccc(F)c(C2CCc3cc(CCC(=O)O)ccc3O2)n1 (racemic) [Example 3] | 3630 nM | 292 nM | 
Cc1cccc(C)c1-c1cccc(C2CCc3cc(CCC(=O)O)ccc3O2)c1 (stereo not shown) [Example 1, 3-(2-(2′,6′-dimethyl-[1,1′-biphenyl]-3-yl)chroman-6-yl)propanoic acid] | 1210 nM | 102 nM | 
CC#C[C@@H](CC(=O)O)c1ccc2c(c1)CCC(c1cccc(-c3c(C)noc3C)c1)O2 (single isomer, unassigned) [Example 40] |  | 255 nM | 
COc1ccc(C(CC(=O)O)c2ccc3c(c2)CCC(c2cccc(-c4c(C)cccc4C)c2)O3)cc1 (stereo not shown) [Example 47] |  |  | activation at 10 µM [2]: 61%
CC#C[C@@H](CC(=O)O)c1ccc2c(c1)CCC(c1cc(-c3cccnc3C(F)(F)F)ccc1F)O2 (single isomer, unassigned) [Example 36] |  | 178 nM | 
Cc1cccc(C)c1-c1cccc(C2CC(=O)c3cc(CCC(=O)O)ccc3O2)c1 (racemic) [Example 7, 3-(2-(2′,6′-dimethyl-[1,1′-biphenyl]-3-yl)-4-oxochroman-6-yl)propanoic acid] |  |  | activation at 10 µM [2]: 70%
Cc1cccc(C)c1-c1cccc(C2CCc3nc(CCC(=O)O)ccc3O2)c1 (stereo not shown) [Example 10, 3-(2-(2′,6′-dimethyl-[1,1′-biphenyl]-3-yl)-3,4-dihydro-2H-pyrano[3,2-b]pyridin-6-yl)propanoic acid] |  | 1310 nM | 
COc1cccc(C(CC(=O)O)c2ccc3c(c2)CCC(c2cccc(-c4c(C)cccc4C)c2)O3)c1 (stereo not shown) [Example 46] |  |  | activation at 10 µM [2]: 41%
Cc1cccc(C)c1-c1cccc(C2CCc3cc(-c4cc(=O)[nH][s+]4[O-])ccc3O2)c1 [Example 9, (1R)-5-(2-(2′,6′-dimethyl-[1,1′-biphenyl]-3-yl)chroman-6-yl)isothiazol-3(2H)-one 1-oxide] |  | 1920 nM | 
Cc1cccc(C)c1-c1cccc(C2CC(F)(F)c3cc(CCC(=O)O)ccc3O2)c1 (racemic) [Example 8, 3-(2-(2′,6′-dimethyl-[1,1′-biphenyl]-3-yl)-4,4-difluorochroman-6-yl)propanoic acid] |  | 349 nM | 
CC#CC(CC(=O)O)c1ccc2c(c1)CCC(c1ccc(C(F)(F)F)c(Cl)c1)O2 (mixture of isomers) [Example 18] |  | 1540 nM | 
COc1ccc(F)c(-c2ccc(C3CCc4ccc([C@@H](CC(=O)O)C5CC5)cc4O3)cc2[C@@H]2CCCC2(C)C)c1 (mixture of isomers) [Example 103] |  |  | EC50 [3, 4]: 6.2 nM
COc1cc(-c2ccc(C3CCc4ccc([C@@H](CC(=O)O)C5CC5)cc4O3)c(F)c2)c(F)cn1 (mixture of isomers) [Example 91] |  |  | EC50 [3, 4]: 3.6 nM
COc1ccc(F)c(-c2ccc(C3COc4ccc([C@H](C5CC5)[C@H](C)C(=O)O)cc4O3)nc2)c1 (single isomer, unassigned) [Example 160] |  |  | EC50 ([3]; HEK cells stably expressing human GPR40, Table 3, read-out: Human IP1 activity): 1.6 nM
COc1ccc(F)c(-c2ccc(C3CCc4ccc([C@H](C5CC5)[C@H](C)C(=O)O)cc4O3)nc2N2CCC2)c1 (mixture of isomers) [Example 132] |  |  | EC50 [3, 4]: 18 nM
COc1cc(-c2ccc(C3CCc4ccc([C@@H](CC(=O)O)C5CC5)cc4O3)cc2)ccn1 (stereo partly shown) [Example 74] |  |  | EC50 [3, 4]: 19 nM

Continued, in another order:

EC50 [1] | EC50 [2] | SMILES | further results
6060 nM | 69 nM | CC(C)=CC(CC(=O)O)c1ccc2c(c1)CCC(c1cccc(-c3c(C)cccc3C)c1)O2 (mixture of isomers) [Example 44] | 
175 nM | 64 nM | CC#C[C@@H](CC(=O)O)c1ccc2c(c1)CCC(c1cccc(-c3cccc4c3c(C(F)(F)F)nn4C)c1)O2 (single isomer, unassigned) [Example 41] | 
1910 nM | 117 nM | Cc1ccccc1-c1ccc(F)c(C2CCc3cc4c(cc3O2)OC[C@H]4CC(=O)O)c1 (stereo partly shown) [Example 56] | 
1020 nM | 12 nM | COc1ccc(F)c(-c2ccc(C3CCc4ccc(CCC(=O)O)cc4O3)cc2C2=CCCC2(C)C)c1 (racemic) [Example 48] | 
 | 1090 nM | CC#CC(CC(=O)O)c1ccc2c(c1)OC(c1ccc(-c3c(C)cccc3C)cc1)CC2 (single isomer, unassigned) [Example 54] | 
 | 1050 nM | Cc1ccccc1-c1ccc(C2CCc3cc4c(cc3O2)OC[C@H]4CC(=O)O)c(F)c1 (stereo partly shown) [Example 57] | 
2520 nM | 51 nM | Cc1ccccc1-c1cc(F)c(C2CCc3cc4c(cc3O2)OC[C@H]4CC(=O)O)cc1-c1ccccc1C (mixture of isomers) [Example 59] | 
1200 nM | 105 nM | CC#C[C@@H](CC(=O)O)c1ccc2c(c1)CCC(c1ccc(-c3cc(OC)ccc3F)cc1)O2 (mixture of isomers) [Example 51] | 
 | 1040 nM | Cc1ccccc1-c1cccc(C2CCc3cc4c(cc3O2)OC[C@H]4CC(=O)O)c1F (mixture of isomers) [Example 58] | 
 | 2040 nM | Cc1cccc(C)c1-c1cccc(C2CCc3cc(C(CC(=O)O)C4CC4)ccc3O2)c1 (mixture of isomers) [Example 43] | 
 | 2140 nM | CC#CC(CC(=O)O)c1ccc2c(c1)OC(c1ccc(-c3c(C)cccc3C)cc1)CC2 (single isomer, unassigned) [Example 53] | 
 | 247 nM | Cc1cccc(C)c1-c1cccc(C2CCc3cc4c(cc3O2)OC[C@H]4CC(=O)O)c1 (stereo partly drawn) [Example 55, 2-((3S)-7-(2′,6′-dimethyl-[1,1′-biphenyl]-3-yl)-3,5,6,7-tetrahydro-2H-furo[3,2-g]chromen-3-yl)acetic acid] | 
